{"source": "patent US20040058989A1", "about": "“Pharmaceutical composition containing citalopram” (H. Lundbeck A/S, priority 2001, published 2004)", "assay": "Particle size distribution by laser diffraction (Sympatec Helos)", "assay_type": "physicochemical", "description": "As used herein, “particle size distribution” means the distribution of equivalent spherical diameters as determined by laser diffraction in a Sympatec Helos equipment. The particle size distributions for fillers and uncompacted citalopram are determined at 1 bar dispersive pressure, whereas the particle size distributions for compacted granulates are determined at 0.2 bar dispersive pressure in order to avoid deaggregation of the granules leading to erroneous results. “Median particle size”, correspondingly, means the median of said particle size distribution.", "key": {"[1]": {"details": "Sympatec Helos, 1 bar dispersive pressure for fillers and uncompacted citalopram, 0.2 bar for compacted granulates"}}}
{"smiles": "CN(C)CCCC1(c2ccc(F)cc2)OCc2cc(C#N)ccc21", "note": "(centres unmarked) [Citalopram HBr]", "values": [{"measurement": "Particle size distribution, quantile 10%", "setting": "[1]", "value": 1.2, "unit": "μm"}, {"measurement": "Particle size distribution, quantile 50% (median particle size)", "setting": "[1]", "value": 14.0, "unit": "μm"}, {"measurement": "Particle size distribution, quantile 90%", "setting": "[1]", "value": 72.3, "unit": "μm"}, {"measurement": "Particle size distribution, quantile 95%", "setting": "[1]", "value": 97.0, "unit": "μm"}, {"measurement": "Particle size", "setting": "product of the process used for preparation of citalopram hydrobromide, general statement", "value": "2-20 μm"}]}
